Values quoted from earlier work as cited in US8492366B2, “Enhancedly-solubilized beta-hydroxy acids and higher potency skin peels formulated therefrom” (Societe L'Oreal S.A., priority 2002, dated 2013).

maximum solubility in alcohol: ~29%
Structure (SMILES): O=C(O)c1ccccc1O [salicylic acid, 2-hydroxybenzoic acid]
